A short description of this experiment: In vitro inhibition of Hematopoietic protein-tyrosine phosphatase using p-nitrophenyl phosphate as substrate.

In turn, `CCCC(NC(=O)c1ccc(/C=C/C(=O)O)cc1)C(=O)NCc1ccccc1` (stereo not drawn) returned an IC50 of 6.1 µM. The molecule `CCCCCCC(NC(=O)c1ccc(/C=C/C(=O)O)cc1)C(=O)NC1CCCCC1` (stereo not drawn) showed an IC50 of 9 µM. On to `CCOC(=O)CNC(=O)C(NC(=O)c1ccc(/C=C/C(=O)O)cc1)c1ccccc1` (stereo not drawn), for which half-maximal inhibition (IC50) required 9.6 µM. Take `CCCCCCC(NC(=O)c1ccc(/C=C/C(=O)O)cc1)C(=O)NCC(=O)OCC` (stereo not drawn): the half-inhibitory concentration (IC50) was 10 µM. As for `CCCCCCC(NC(=O)c1ccc(/C=C/C(=O)O)cc1)C(=O)NC(C)(C)C` (stereo not drawn), the half-inhibitory concentration (IC50) was found to be 7.5 µM. Next, `CCCCCCC(NC(=O)c1ccc(/C=C/C(=O)O)cc1)C(=O)NCCCC` (stereo not drawn): 9 µM. Consider `CCC(NC(=O)c1ccc(/C=C/C(=O)O)cc1)C(=O)NCc1ccccc1` (stereo not drawn), for which the IC50 is 15 µM. Next, `COC(=O)CNC(=O)C(NC(=O)c1ccc(/C=C/C(=O)O)cc1)c1ccccc1` (stereo not drawn): 20.2 µM; `CCCCCCC(NC(=O)c1ccc(/C=C/C(=O)O)cc1)C(=O)NCC(=O)O` (stereo not drawn): 7.5 µM; `O=C(O)/C=C/c1ccc(C(=O)NC(C(=O)NC2CCCCC2)c2ccccc2)cc1` (stereo not drawn): 6.2 µM.

On to `CCCCNC(=O)C(NC(=O)c1ccc(/C=C/C(=O)O)cc1)c1ccccc1` (stereo not drawn), for which 6.7 µM corresponded to half-maximal inhibition (IC50). `CCCCCCC(NC(=O)c1ccc(/C=C/C(=O)O)cc1)C(=O)NCc1ccccc1` (stereo not drawn) returned a 50% inhibitory concentration (IC50) of 6 µM.

For the molecule `CCCCC(NC(=O)c1ccc(/C=C/C(=O)O)cc1)C(=O)NCc1ccccc1` (stereo not drawn), the midpoint of inhibition, the IC50, lay at 6.3 µM. In the case of `CC(NC(=O)c1ccc(/C=C/C(=O)O)cc1)C(=O)NCc1ccccc1` (stereo not drawn), the half-inhibitory concentration (IC50) was 7.2 µM.

Consider `CC(C)(C)NC(=O)C(NC(=O)c1ccc(/C=C/C(=O)O)cc1)c1ccccc1` (stereo not drawn), for which it took 4 µM to reach half-maximal inhibition (IC50). Next, `O=C(O)/C=C/c1ccc(C(=O)NC(C(=O)NCC(=O)O)c2ccccc2)cc1` (stereo not drawn): 10.4 µM; `O=C(O)/C=C/c1ccc(C(=O)NC(C(=O)NCc2ccccc2)c2ccccc2)cc1` (stereo not drawn): 3.9 µM; `CCCCCCC(NC(=O)c1ccc(/C=C/C(=O)O)cc1)C(=O)NCC(=O)OC` (stereo not drawn): 7.2 µM.

Values taken from ChEMBL document CHEMBL1128097, “Synthesis of Nh-acyl--aminoamides on rink resin: Inhibitors of the hematopoietic protein tyrosine phosphatase (HePTP)” (Bioorg Med Chem Lett, 1995).
